Test results as given in patent publication US9497970B2, “Pesticide compounds” (priority 2013, dated 2016).
Like-named read-outs stand apart in the source and are kept apart here.

Key:
Assay type in all cases: in vivo
[1] = test system: Orchid thrips (dichromothrips corbetti); test: B.12 Orchid thrips (dichromothrips corbetti), floral-immersion technique; details: adult thrips on dipped orchid petals, 72 hours after treatment, in comparison with untreated controls
Summary of the method: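 Whole orchid flower petals were dipped in compound in 1:1 acetone:water with 0.01% v/v Kinetic HV, dried, and enclosed with about 20 adult thrips. They were held under continuous light at about 28° C. Live thrips were counted and percent mortality recorded at 72 hours.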

[2] = test system: Diamond Back Moth (Plutella xylostella); test: B.1 Diamond Back Moth (Plutella xylostella), cabbage leaf dip; details: foliar
Summary of the method: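 Cabbage leaves dipped in compound in 1:1 water:acetone with 0.01% Kinetic HV surfactant, air-dried, then infested with ten 3rd-instar larvae on moist filter paper. Mortality scored at 72 h after treatment; feeding damage rated on a 0-100% scale.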

[3] = test system: Silverleaf Whitefly (Bemisia argentifoli); test: B.5 Silverleaf Whitefly (Bemisia argentifoli), sprayed cotton plants; details: 72 h, whitefly adults on sprayed cotton plants, 3 days after treatment, in comparison with untreated controls
Protocol: B.5 Silverleaf Whitefly (Bemisia argentifoli)
The active compounds were formulated by a Tecan liquid handler in 100% cyclohexanone as a 10,000 ppm solution supplied in tubes. The 10,000 ppm solution was serially diluted in 100% cyclohexanone to make interim solutions. These served as stock solutions for which final dilutions were made by the Tecan in 50% acetone:50% water (v/v) into 5 or 10 ml glass vials. A nonionic surfactant (Kinetic®) was included in the solution at a volume of 0.01% (v/v). The vials were then inserted into an automated electrostatic sprayer equipped with an atomizing nozzle for application to plants/insects.
Cotton plants at the cotyledon stage (one plant per pot) were sprayed by an automated electrostatic plant sprayer equipped with an atomizing spray nozzle. The plants were dried in the sprayer fume hood and then removed from the sprayer. Each pot was placed into a plastic cup and about 10 to 12 whitefly adults (approximately 3-5 days old) were introduced. The insects were collected using an aspirator and a nontoxic Tygon® tubing connected to a barrier pipette tip. The tip, containing the collected insects, was then gently inserted into the soil containing the treated plant, allowing insects to crawl out of the tip to reach the foliage for feeding. Cups were covered with a reusable screened lid. Test plants were maintained in a growth room at about 25° C. and about 20-40% relative humidity for 3 days, avoiding direct exposure to fluorescent light (24 hour photoperiod) to prevent trapping of heat inside the cup. Mortality was assessed 3 days after treatment, compared to untreated control plants.

[4] = test system: Southern Armyworm (Spodoptera eridania), 2nd Instar Larvae; test: B.10 Southern Armyworm (Spodoptera eridania), 2nd Instar Larvae, sprayed lima bean plants; details: 96 h
Summary of the method: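 Lima bean plants at 1st true leaf stage sprayed electrostatically with compound in 50% acetone:50% water plus 0.01% nonionic surfactant, then infested with about 10 to 11 2nd instar larvae. Mortality and reduced feeding assessed 4 days after treatment at about 25° C versus untreated plants.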

[5] = test system: Boll Weevil (Anthonomus grandis); test: B.3 Boll Weevil (Anthonomus grandis), microtiter plate insect diet; details: 120 h, read-out: mortality (egg and larval)
Summary of the method: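 Compounds in 25% DMSO/water sprayed at several concentrations onto insect diet in microtiter wells holding 5–10 A. grandis eggs, two replicates. Plates kept 5 days at about 25±1 °C and 75±5% RH. Egg and larval mortality scored visually.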

[6] = test system: Mediterranean Fruitfly (Ceratitis capitata); test: B.6 Mediterranean Fruitfly (Ceratitis capitata), microtiter plate insect diet; details: 120 h, read-out: mortality (egg and larval)
Summary of the method: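 Insect diet with 50-80 C. capitata eggs sprayed with compounds formulated in 75% water/25% DMSO, at different concentrations, two replications. Incubation at about 28±1° C and 80±5% relative humidity for 5 days, then egg and larval mortality assessed visually.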

[7] = test system: Vetch Aphid (Megoura viciae); test: B.8 Vetch Aphid (Megoura viciae), broad bean leaf disks; details: foliar, 120 h
Protocol: B.8 Vetch Aphid (Megoura viciae)
For evaluating control of vetch aphid (Megoura viciae) through contact or systemic means the test unit consisted of 24-well-microtiter plates containing broad bean leaf disks.
The compounds were formulated using a solution containing 75% v/v water and 25% v/v DMSO. Different concentrations of formulated compounds were sprayed onto the leaf disks at 2.5 μl, using a custom built micro atomizer, at two replications.
After application, the leaf disks were air-dried and 5-8 adult aphids placed on the leaf disks inside the microtiter plate wells. The aphids were then allowed to suck on the treated leaf disks and incubated at about 23±1° C. and about 50±5% relative humidity for 5 days. Aphid mortality and fecundity was then visually assessed.

[8] = test system: Tobacco Budworm (Heliothis virescens); test: B.7 Tobacco Budworm (Heliothis virescens) I, microtiter plate insect diet; details: 120 h, read-out: mortality (egg and larval)
Summary of the method: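 96-well plates with insect diet and 15-25 H. virescens eggs; compounds in 75% water/25% DMSO sprayed onto diet at several concentrations, two replicates. Plates held at about 28±1° C. and 80±5% relative humidity for 5 days, then egg and larval mortality scored visually.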

[9] = test system: Yellow Fever Mosquito (Aedes aegypti); test: whole plant or invertebrate; details: 48 h, freshly hatched larvae in tap water, 2 days, in comparison with untreated controls, read-out: mortality (larval)
Summary of the method: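 Freshly hatched A. aegypti larvae, 5–15 per well, were held in 200 μl tap water. Compounds formulated in 75:25 water:DMSO were sprayed at various concentrations, 2.5 μl per well by micro-atomizer, in two replicates.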

[10] = test system: Green Peach Aphid (Myzus persicae); test: B.9 Green Peach Aphid (Myzus persicae), sprayed bell pepper plants; details: 120 h, infested bell pepper plants sprayed, after 5 days, in comparison with untreated controls
Summary of the method: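 Bell pepper plants at first true-leaf stage, infested with 30-50 aphids each, were sprayed electrostatically with compound in 50% acetone:water plus 0.01% nonionic surfactant. Held at about 25° C, 24-hr light, 20-40% RH. Mortality versus untreated controls scored after 5 days.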

[11] = 500 ppm, 3rd instar larvae on dipped cabbage leaves, 72 hours after treatment, in comparison with untreated controls, read-out: mortality
[12] = 300 ppm, larvae on sprayed lima bean plants, 4 days after treatment, in comparison with untreated controls, read-out: mortality
[13] = 800 ppm, sprayed onto insect diet, 5 days, in comparison with untreated controls
[14] = 2500 ppm, adult aphids on sprayed leaf disks, 5 days, in comparison with untreated controls, read-out: mortality

CC(C)c1ccccc1N1CCSC1=N/N=C/c1ccc2c(ccc3c2ncn3-c2ccc(OC(F)(F)F)cc2)c1 (stereo in doubt) [C-53, (E)-3-(2-isopropylphenyl)-N-[(E)-[3-[4-(trifluoromethoxy)phenyl]benzo[e]benzimidazol-7-yl]methyleneamino] thiazolidin-2-imine]
≥ 75%: mortality at 500 ppm [1] | mortality at 500 ppm [2, 11] | mortality at 300 ppm [3] | mortality at 300 ppm [4, 12] | mortality at 800 ppm [5, 13] | mortality at 800 ppm [6, 13] | mortality at 2500 ppm [7, 14] | mortality at 800 ppm [8, 13] | mortality at 800 ppm [9]

Fc1ccc(NC(=S)N/N=C/c2ccc3c(ccc4c3ncn4-c3ccc(OC(F)(F)F)cc3)c2)c(F)c1 [C-5, 1-(2,4-difluorophenyl)-3-[(E)-[3-[4-(trifluoromethoxy)phenyl]benzo[e]benzimidazol-7-yl]methyleneamino] thiourea]
≥ 75%: mortality at 500 ppm [2, 11] | mortality at 800 ppm [5, 13] | mortality at 800 ppm [6, 13] | mortality at 2500 ppm [7, 14] | mortality at 800 ppm [8, 13]

FC(F)(F)Oc1ccc(-c2onc3c2CCc2cc(/C=N/NC(=S)Nc4cc(C(F)(F)F)ccc4Cl)ccc2-3)cc1 [C-18, 1-[2-chloro-5-(trifluoromethyl)phenyl]-3-[(E)-[3-[4-(trifluoromethoxy)phenyl]-4,5-dihydrobenzo[g][2,1]benzoxazol-7-yl]methyleneamino]thiourea]
≥ 75%: mortality at 2500 ppm [7, 14]

O=[N+]([O-])c1ccccc1NC(=S)N/N=C/c1ccc2c(c1)CCc1c-2nnn1-c1ccc(OC(F)(F)F)cc1 [C-43, 1-(2-nitrophenyl)-3-[[3-[4-(trifluoromethoxy)phenyl]-5,6-dihydro-4H-benzo[e]benzotriazol-7-ylidene]methylimino]thiourea]
≥ 75%: mortality at 800 ppm [10] | mortality at 2500 ppm [7, 14]

CC(OC(=O)Nc1ccc2c(ccc3c2ncn3-c2ccc(OC(F)(F)F)cc2)c1)c1ccc(Cl)cn1 (stereo not drawn) [C-56, 1-(5-chloro-2-pyridyl)ethyl N-[3-[4-(trifluoromethoxy)phenyl]benzo[e]benzimidazol-7-yl]carbamate]
≥ 75%: mortality at 500 ppm ([2]; 72 h) | mortality at 300 ppm [4] | mortality at 800 ppm [5] | mortality at 800 ppm [6] | mortality at 2500 ppm [7] | mortality at 800 ppm [8] | mortality at 800 ppm [9]

Cc1cccc(C)c1NC(=S)N/N=C/c1ccc2c(ccc3c2ncn3-c2ccc(SC(F)(F)F)cc2)c1 [C-75, 1-(2,6-dimethylphenyl)-3-[(E)-[3-[4-(trifluoromethylsulfanyl)phenyl]benzo[e]benzimidazol-7-yl]methyleneamino] thiourea]
≥ 75%: mortality at 500 ppm [1] | mortality at 500 ppm [2, 11] | mortality at 300 ppm [3] | mortality at 300 ppm [4, 12] | mortality at 800 ppm [10] | mortality at 800 ppm [5, 13] | mortality at 800 ppm [6, 13] | mortality at 800 ppm [8, 13] | mortality at 800 ppm [9]

CCc1cccc(C)c1NC(=S)N/N=C/c1ccc2c(ccc3c2ncn3-c2ccc(SC(F)(F)F)cc2)c1 [C-76, 1-(2-ethyl-6-methyl-phenyl)-3-[(E)-[3-[4-(trifluoromethylsulfanyl)phenyl]benzo[e]benzimidazol-7-yl]methyleneamino]thiourea]
≥ 75%: mortality at 500 ppm [1] | mortality at 500 ppm [2, 11] | mortality at 300 ppm [3] | mortality at 300 ppm [4, 12] | mortality at 800 ppm [10] | mortality at 800 ppm [5, 13] | mortality at 800 ppm [6, 13] | mortality at 800 ppm [8, 13] | mortality at 800 ppm [9]

Cc1cccc(Cl)c1NC(=S)N/N=C/c1ccc2c(ccc3c2ncn3-c2ccc(C(F)(F)F)cc2)c1 [C-77, 1-(2-chloro-6-methyl-phenyl)-3-[(E)-[3-[4-(trifluoromethyl)phenyl]benzo[e]benzimidazol-7-yl]methyleneamino] thiourea]
≥ 75%: mortality at 500 ppm [1] | mortality at 500 ppm [2, 11] | mortality at 300 ppm [3] | mortality at 300 ppm [4, 12] | mortality at 800 ppm [10] | mortality at 800 ppm [5, 13] | mortality at 800 ppm [6, 13] | mortality at 800 ppm [8, 13] | mortality at 800 ppm [9]

Cc1cccc(C)c1NC(=S)N/N=C/c1ccc2c(ccc3c2ncn3-c2ccc(C(F)(F)F)cc2)c1 [C-86, 1-(2,6-dimethylphenyl)-3-[(E)-[3-[4-(trifluoromethyl)phenyl]benzo[e]benzimidazol-7-yl]methyleneamino]thiourea]
≥ 75%: mortality at 500 ppm [1] | mortality at 500 ppm [2, 11] | mortality at 300 ppm [4, 12] | mortality at 800 ppm [10] | mortality at 800 ppm [5, 13] | mortality at 800 ppm [6, 13] | mortality at 2500 ppm [7, 14] | mortality at 800 ppm [8, 13] | mortality at 800 ppm [9]

Cc1ccc(-n2cnc3c4ccc(/C=N/NC(=S)Nc5c(C)cccc5C)cc4ccc32)cc1 [C-105, 1-(2,6-dimethylphenyl)-3-[(E)-[3-(p-tolyl)benzo[e]benzimidazol-7-yl]methyleneamino]thiourea]
≥ 75%: mortality at 800 ppm [5, 13] | mortality at 800 ppm [6, 13] | mortality at 2500 ppm [7, 14]
